Results on three substances are retold here after US7803768B2, “Method for treatment of hyperglycemia in a subject in need thereof” (Kyoto University, priority 2005, dated 2010).

Where no end group is shown, it is not given here. [ ]: non-standard residue; d: D form. The star is where a group is joined. Octanoyl = CCCCCCCC(=O)*

One assay concerns neonatal rat STZ model. Kind of assay: neonatal rat STZ model, human ghrelin or GHRP-2 (Examples 3 and 4). The following applies: 9th week after birth; for Body weights: FIG. 7A / FIG. 8A; for Pancreas weights: FIG. 7B / FIG. 8B; for Insulin Content (Gut Side): calculated from gut-side pancreas sample; for Insulin Content (Gut Side) / Insulin Content (Spleen Side): mean ± SE; for Insulin Content (Spleen Side): calculated from spleen-side pancreas sample. The class given is in vivo, Sprague Dawley rats. The text has this: Sprague Dawley female pregnant rats, purchased from Charles River, were allowed free access to tap water and a standard pellet rat diet (CRF-1, Oriental Yeast Co., Ltd.), and natural deliveries were allowed. Three experimental groups as follows were set: control group wherein rats received single peritoneal injection of citrate buffer immediately after birth; STZ-vehicle group wherein rats received single peritoneal injection of STZ, and then vehicle (5% mannitol solution) was subcutaneously administered twice a day from the 2nd day after birth for 7 days; and STZ-human ghrelin group wherein rats received single peritoneal injection of STZ, and then human ghrelin (sequence No. 1, 100 μg/kg body weight) was subcutaneously injected twice a day from a 2nd day after birth for 7 days.
STZ was prepared and administered as in the example 1. Each male neonatal rat was checked for urinary sugar on the 2nd day with Pretest 3aII (Wako Pure Chemical Industries, Ltd.). Only rats that were glycosuric (3+ value with Pretest 3aII) at day 2 after birth were included in the following studies. The rats were weaned in the evening on the 20th day after birth. Blood samples were collected from tail vein while awake at 8th week (57th day) after birth to measure plasma glucose and insulin concentrations. In addition, after measuring body weight at 9th week (62nd or 63rd day) after birth, blood samples were collected from abdominal aorta under anesthesia with intraperitoneal injection of pentobarbital sodium (50 mg/kg). Whole pancreases were removed and weighed. Thereafter, the pancreases were divided into two pieces and kept for insulin content measurement. Blood samples were centrifuged immediately at 4° C. to prepare plasma samples, and kept at −80° C. until measurement of glucose and insulin concentrations. Glucose concentration was measured using a Glucose CII-test Wako (Wako Pure Chemical Industries, Ltd.), while insulin concentration was measured using a highly sensitive insulin measurement kit (Morinaga Institute of Biological Science, Inc.).
Experimental materials, experimental methods and evaluation methods were similar to those in the example 2. As a test substance, 100 μg/kg of GHRP-2 was subcutaneously administered twice a day from a 2nd day after birth for 7 days (an STZ-GHRP-2 group).

For the next assay, the system named is n0-STZ model. Kind of assay: n0-STZ model: neonatal streptozotocin-treated rats given rat ghrelin (Example 1). It counts as in vivo, Sprague Dawley rats. As to conditions: for Plasma Insulin: 100 μg/kg s.c. twice a day, 2nd to 8th day after birth, mean ± SE. An excerpt:
Female or male Sprague Dawley rats, purchased from Charles River were, were allowed free access to tap water and a standard pellet rat diet (352 kcal/100 g, CE-2, CLEA). Females were caged with a male for one night, and pregnancy was detected by abdominal palpation 14 days later. Natural birth occurred 22 days after mating. We examined three experimental groups as follows: a control group (Sprague Dawley rats) wherein newborn rats received a single intraperitoneal injection of citrate buffer; an n0-STZ group wherein rats received a single intraperitoneal injection of streptozotocin (STZ); and an n0-STZ/ghrelin group wherein rats received a single intraperitoneal injection of streptozotocin, and then received rat-derived ghrelin (hereafter reffered to as rat ghrelin, sequence No. 3, 100 μg/kg body weight) by subcutaneous injection twice a day on the 2nd to 8th day after birth for 7 days.
Streptozotocin (Sigma, 100 mg/kg body weight) was dissolved in citrate buffer (0.05 mmol/L, pH4.5) and immediately injected intraperitoneally once into a rat immediately after birth. Pups were left with their mothers. Each neonatal rat was checked for urinary sugar on the 2nd day with Multistix SG (Bayer Medical). Only rats that were glycosuric (3+ value with Multistix SG test) at day 2 after birth were included in the n0-STZ model group. Animals were killed at 21 or 70 days by bleeding under anesthesia with intraperitoneal injection of pentobarbital sodium (50 mg/kg).
After excision, pancreases were removed and weighed. To measure insulin content, pancreases (35-50 mg) were homogenized and centrifuged in 5 ml of acid-ethanol (0.15 M HCl 75% (v/v)-ethanol solution), and the supernatants were kept at −80° C. For immunohistochemistry, additional pancreases were fixed in 4% paraformaldehyde fixative for 24 hours, and embedded in paraffin.
Insulin and pdx-1 were detected immunohistochemically on 3 μm-thick tissue sections using an indirect peroxidase-labeling technique. Each section was incubated with a primary antibody (guinea pig anti-porcine insulin, DACO) or (rabbit anti-mouse/rat IDX-1; CHEMICON) for 1 hour. Staining was performed by incubation with 3,3′-diaminobenzidine tetrahydrochloride (DAB) kit (DakoCytomation). Quantitative evaluations of total β cells area were performed by a computer-assisted image analysis procedure using an Olympus BX 51 microscope connected to a digital camera DP 12 and Mac SCOPE Ver2.6 software (Mitani, Fukui, Japan). β cells area and total pancreatic section area were evaluated for each stained section. A relative volume of β cells was determined by a sterological morphological method, with calculation of the ratio between the areas occupied by immunoreactive cells and those occupied by total pancreatic cells.
Total RNA was extracted from rat pancreases as previously reported (Biochem. Biophys. Res. Commun., 214, pp. 239-246, 1995). To synthesis the first-strand cDNA, the extracted products were used as templates in reactions containing RT (Invitrogen) and the target 3′ primer. An RT-PCR analysis was performed according to a method previously reported (Biochem. Biophys. Res. Commun., 214, pp. 239-246, 1995). The first strand cDNA was used in subsequent PCR analyses. In the PCR analyses, oligonucleotide primers as follows were used for each target cDNA. The identity of the PCR product was confirmed by agarose gel electrophoresis.
Realtime PCR was performed as follows. The cDNA (1 μl) was mixed with 2×PCR Master Mix (Applied Biosystems) (25 μl), sterilized distilled water (23 μl), and sense and antisense primers ([…], 0.5 μl) of insulin and Pdx-1. Forty cycles of PCR amplification were carried out using the thermal cycler system (ABI PRISM 7700, Applied Biosystems, Japan), for 15 seconds at 95° C. followed by 60 seconds at 60° C. The concentration of each mRNA product was quantified using calibration curves expressing the fluorescence intensity against the amount of standardized PCR product. […]

Another assay deals with β cells. Briefly: β cell replication, phospho-histone H3 / insulin double staining of pancreatic sections (Example 2). The class given is in vivo, rat. The following applies: for Double positive cells for phospho-histone H3 and insulin: 10-week-old rats, FIG. 6, no significant difference among four groups; for Increase of double positive cells for phospho-histone H3 and insulin: 21-day-old rats, FIG. 5B. As for the experimental part: Pancreatic sections that had not been used for morphological studies were used to examine β cell replication. The sections were subjected to double staining for phospho-histone H3 (Ser10) and insulin. The sections were incubated overnight with 50-fold dilution of anti-phospho-histone H3 (Ser10) antibody (Cell Signaling Technology) at 4° C. Thereafter, the sections were incubated with guinea pig anti-insulin antibody at a room temperature for 1 hour. After washing with PBS for 6 times, the sections were incubated at a room temperature for 30 minutes in a blocking solution with a secondary antibody conjugated with fluorescence (Alexa Fluor 488 and 546, Molecular Probe). After washing with PBS, sections were mounted with mounting medium containing DAPI (Vector Laboratories) and examined with confocal laser scanning microscopy (Leica Microsystems). At least 1,000β cells were counted per section.

Assay [1] has as its system high fatty acid diet-fed mice. Kind of assay: high fatty acid diet-fed mice with linoleic acid loading (Example 5). It counts as in vivo, Crj:CD1(ICR) mice. An excerpt: Male Crj:CD1(ICR) mice (Charles River Japan) were allowed free access to tap water and a standard pellet mouse diet (CRF-1, Oriental Yeast Co., Ltd.) (with lighting hours from 21 to 9 o'clock). Normal control mice were kept in this condition (normal diet, an ND group). A high fatty acid diet group (High Fat Diet, an HFD group) was allowed to freely take a mixture of 5 g CRF-1 (powder) with 1 g linoleic acid as a high fatty acid diet from the 4th week after birth. As test substances, a vehicle (5% mannitol solution) (an HFD-vehicle group) or 300 μg/kg of human ghrelin (an HFD-ghrelin group) was administered twice a day (once a day in a holiday) for about 7 weeks from the day of the start of high fatty acid diet load. Changes in the body weights and ad lib blood sugar levels after the start of test substance administration were monitored. In addition, mice were fasted overnight on the 50th day from the start of test substance administration, and then linoleic acid (1 mL/kg, intraperitoneal administration) was acutely loaded on a next day to measure plasma glucose and plasma insulin concentrations 1 hour later. The blood sugar value was measured using Antisense II (Horiba, Ltd.), while plasma glucose concentration and insulin concentration were measured using a Glucose CII-test Wako (Wako Pure Chemical Industries, Ltd.) and a Lebis insulin kit (TMB for a mouse) (Shibayagi Co. Ltd.), respectively.

With “A[dW]AW[dF]K-NH2 [GHRP-2, reference compound]”, in the assay with neonatal rat STZ model, the “Insulin contents in pancreases relative to the STZ-vehicle group” value is recorded as “higher than those of the STZ-vehicle group”, the Body weights entry is on record as “not significantly different from those of the control group”, the Pancreas weights result is reported as “greater than those of the STZ-vehicle group” and the “Insulin Content (Gut Side)” value is recorded as 81.7 ± 4.6 μg/pancreas. The “Insulin Content (Spleen Side)” value in the assay with neonatal rat STZ model is 146.8 ± 10.9 μg/pancreas.
With “GSS(n-octanoyl)FLSPEHQKAQQRKESKKPPAKLQPR [rat ghrelin]”, the “Plasma Insulin” value in the assay on n0-STZ model (10-week-old rats) was found to be 0.93 ± 0.49 ng/mL; in the assay with n0-STZ model (21-day-old rats) it was 0.35 ± 0.17 ng/mL. Also, the “Insulin mRNA expression levels within the pancreases” value with n0-STZ model (21st day after birth, FIG. 1A) is “returned to levels similar to those of the control group”. Besides, the “pdx-1 gene expression levels in pancreas” value in the assay with n0-STZ model (21st day after birth, FIG. 2A) is “recovered to the levels similar to those in the control group”. For the same substance, the “Islet of Langerhans size, insulin immunostaining of pancreases” value in the assay with n0-STZ model (21st day after birth, FIGS. 1B-E) is “larger than that of the n0-STZ group but smaller than that of the control group”. The “Pdx-1 gene expression in pancreas” value in the assay with n0-STZ model (70th day after birth (adult rats), FIG. 4A) is “returned to the level close to that of the control group”. Moreover, the “Insulin mRNA expression in pancreas” value in the assay on n0-STZ model (70th day after birth (adult stage), FIG. 3B) is recorded as “a level similar to that of the control group”. Also, in the assay on n0-STZ model (70th day after birth, FIGS. 3C-F), the “Islet of Langerhans size, insulin immunohistochemical staining” value was “larger than that of the n0-STZ group but smaller than that of the control group”. For the same substance, the “Double positive cells for phospho-histone H3 and insulin” value in the assay on β cells (STZ model) was “tendency for double positive cells for phospho-histone H3 and insulin to increase”; in the assay on β cells (control group (no STZ)), “tended to decrease”. Further, the results for the “Increase of double positive cells for phospho-histone H3 and insulin” value with β cells (ghrelin group as compared to control rats) and in the assay on β cells (n0-STZ/ghrelin group as compared to n0-STZ rats) were “approximately 1.7 fold” and roughly 15 fold, respectively.
As to “GSS(n-octanoyl)FLSPEHQRVQQRKESKKPPAKLQPR (GSS(Octanoyl)FLSPEHQRVQQRKESKKPPAKLQPR; listed as Homo Sapiens) [human ghrelin]”, in the assay with neonatal rat STZ model, the “Insulin contents in pancreases relative to the STZ-vehicle group” value was “about twice as high as those of the STZ-vehicle group”, the Body weights entry was “comparable to those of the control group”, the Pancreas weights result is on record as “significantly greater than those of the STZ-vehicle group” and the “Insulin Content (Gut Side)” value is listed as 63.0 ± 6.7 μg/pancreas. Also, in the assay with neonatal rat STZ model, the “Insulin Content (Spleen Side)” value is recorded as 120.9 ± 14.1 μg/pancreas. In addition, in assay [1] (43rd day of high fatty acid diet and 300 μg/kg s.c. administration, FIG. 9B), the “ad lib blood sugar levels” value is listed as “tended to decrease as compared to the HFD-vehicle group”. The “Plasma glucose concentrations after linoleic acid loading” value in assay [1] (1 hour after 1 mL/kg linoleic acid i.p., FIG. 10B) is given as “tended to be low as compared to the HFD-vehicle group”. Further, the “Plasma glucose concentrations before linoleic acid loading” value in assay [1] (after 50 days of high fatty acid diet and 300 μg/kg administration, fasted overnight, mean of 8 mice ± standard error) was 141 ± 5 mg/dL. In addition, the “Plasma insulin concentrations after linoleic acid loading” value in assay [1] (after 50 days, fasted overnight, 1 hour after 1 mL/kg linoleic acid i.p., FIG. 10A) was “higher than those of the HFD-vehicle group”.
